Data from article PMC7587396, “New Zileuton-Hydroxycinnamic Acid Hybrids: Synthesis and Structure-Activity Relationship towards 5-Lipoxygenase Inhibition” (Molecules, 2020).
“Also recorded” adds a separate entry of the source.

How the values were obtained:
5-LO [1] = biological target: T1, 5-LO (Homo sapiens, UniProt P09917); design: 5-LO is highly expressed in PMNL; endogenous in cells; host or cells: human PMNL from peripheral blood of healthy volunteers; conditions: read-out: IC50, inhibition of LTs biosynthesis in human PMNL; cited from earlier work
T1 sequence (P09917 1-674): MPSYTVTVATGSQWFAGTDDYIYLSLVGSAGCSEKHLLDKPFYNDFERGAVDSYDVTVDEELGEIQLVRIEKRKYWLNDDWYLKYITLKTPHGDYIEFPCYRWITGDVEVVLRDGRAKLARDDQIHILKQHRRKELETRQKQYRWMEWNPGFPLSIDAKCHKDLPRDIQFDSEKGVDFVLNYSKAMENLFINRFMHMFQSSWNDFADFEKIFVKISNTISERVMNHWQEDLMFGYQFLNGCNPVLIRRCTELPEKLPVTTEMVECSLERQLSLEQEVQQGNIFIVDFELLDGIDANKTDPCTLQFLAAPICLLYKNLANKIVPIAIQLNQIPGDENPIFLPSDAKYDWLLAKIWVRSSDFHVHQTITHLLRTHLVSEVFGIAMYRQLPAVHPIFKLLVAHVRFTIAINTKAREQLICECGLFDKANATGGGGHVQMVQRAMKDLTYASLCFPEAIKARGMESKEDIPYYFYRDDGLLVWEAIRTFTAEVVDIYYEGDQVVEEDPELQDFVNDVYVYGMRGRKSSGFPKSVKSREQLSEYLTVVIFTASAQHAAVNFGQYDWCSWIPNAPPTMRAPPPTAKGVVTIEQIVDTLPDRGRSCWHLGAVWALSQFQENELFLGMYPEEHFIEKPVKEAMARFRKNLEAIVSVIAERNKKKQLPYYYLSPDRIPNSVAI

5-LO [2] = biological target: T1, 5-LO; experiment: 5-LO product biosynthesis assay in stimulated HEK293 cells co-transfected with 5-LO and FLAP; type: cell-based; design: expressed in transfected cells; host or cells: HEK293 cells, stably co-transfected (pcDNA3.1 5-LO, pBUDCE4.1 FLAP); conditions: compounds at 1 µM; result in words, compared with zileuton (1) and SAPE (2) at 1 µM; A23187 + arachidonic acid stimulation
Method: All compounds, including known inhibitors zileuton (1) and SAPE (2), were assayed at 1 µM (Figure 1) for inhibition of LTs biosynthesis in stimulated HEK293 cells. These cells are stably transfected with human 5-LO and serves as a highly reproducible model of 5-LO product biosynthesis in which compounds can be preliminarily screened for anti-LTs activity before moving on to more complex systems. […] Esterification of benzo[b]thiophene-2-carboxylic acid to obtain benzyl to phenbutyl analogs (4–7) had no effect on the inhibitory activity of 5-LO. […] Even the addition of a hydroxyl (8) or methoxy (9) at para-position of the phenethyl group has no effect on the activity.
HEK293 cells were stably co-transfected with a pcDNA3.1 vector expressing 5-LO and a pBUDCE4.1 vector expressing 5-LO activating protein (FLAP) as previously reported. This represents a controlled model for the evaluation of 5-LO inhibition in a cellular system. For cell stimulation of 5-LO products, transfected HEK293 cells were collected following trypsinization, washed and the cell pellet was resuspended in Hank’s balanced salt solution (HBSS) (Lonza, Walkerville, MD) containing 1.6 mM CaCl2 at a concentration of 5 × 10^5 cells/mL. Cells were pre-incubated with each compound dissolved in DMSO at the indicated concentration for 5 min at 37 °C. Cells were then stimulated for 15 min at 37 °C with the addition of 10 µM calcium ionophore A23187 (Sigma-Aldrich, Oakville, ON, Canada) and 10 µM arachidonic acid (Cayman Chemical, Ann Arbor, MI). Stimulation was stopped and processed for RP-HPLC analysis as described previously.

[3] = Free radical scavenging activity assay (DPPH); conditions: DPPH stable radical, 30 min, absorbance 517 nm; read-out: Free radical scavenging activity IC50 (µM) [SEM]
Method: A mechanism by which 5-LO activity can be inhibited is through reductive inhibition of the ferric non-heme iron of the enzyme. Interactions with stable free radicals provides an evaluation of the reducing ability of the test compounds. Radical scavenging activities of compounds tested in stimulated PMNL were assayed using 2,2-Diphenyl-1-picrylhydrazyl (DPPH) as a stable radical and are expressed as IC50 concentrations in Table 1.
The free radical scavenging activity of test compounds was measured as previously described using 2,2-diphenyl-1-picrylhydrazyl (DPPH) as a stable radical with slight modifications. DPPH (200 µL) in ethanol (250 µM) was mixed with 200 µL of the test compounds (1, 5, 10, 25, 50, 75, and 100 µg/mL). Each mixture was then shaken vigorously and held in the dark for 30 min at room temperature. The absorbance of DPPH at 517 nm was then measured. The radical scavenging activity was expressed in terms of % inhibition of DPPH absorbance:% Inhibition = (A control − A test)/A control) × 100 where A control is the absorbance of the control (DPPH solution without test compounds) and A test is the absorbance of the test sample (DPPH solution plus compounds). Ascorbic acid was used as a positive control. Data were expressed as mean ± SEM of three independent experiments, each performed in triplicate. IC50 values were calculated from a sigmoidal concentration-response curve-fitting model with a variable slope on GraphPad Prism software.

5-LO [4] = biological target: T1, 5-LO; experiment: 5-LO products biosynthesis assay in human PMNL cells; type: cell-based; design: 5-LO is highly expressed in PMNL; endogenous in cells; host or cells: human PMNL from peripheral blood of healthy volunteers; conditions: compounds at 1 µM; result in words, compared with zileuton (1), SAPE (2) or controls; thapsigargin stimulation
Source text: To further probe the inhibitory activity of compounds that approached the inhibitory activity of zileuton (1) and SAPE (2), compounds were selected for further screening in PMNL (Figure 6). 5-LO is highly expressed in PMNL and these cells are important physiological producers of LTB4 [17]. […] The presence of the hydroxyl group in position 4 and the methoxy groups in positions 3 and 5 seems to be an ideal combination for inhibition of 5-LO (Figure 6). These structural changes may influence the availability, cell permeation, or even the stability of inhibitors in PMNL versus HEK293 cells. […] Human PMNL were prepared from peripheral blood of healthy consenting volunteers as described. Human PMNL are an important source of 5-LO metabolites and are relevant primary inflammatory cells for the evaluation of the best compounds identified during the screening process. PMNL were suspended in HBSS containing 1.6 mM CaCl2 (10^7 cells/mL) and pre-incubated with compounds dissolved in DMSO for 5 min at 37 °C in the presence of 0.4 U/mL of adenosine deaminase (Sigma-Aldrich, Oakville, On, Canada). Cells were then stimulated for 15 min at 37 °C with 1 μM thapsigargin (Sigma-Aldrich). Reactions were stopped by the addition of 0.5 mL of cold MeOH:CH3CN (1:1) and 50 ng of PGB2 as internal standard and samples were stored at -20 °C until processing for RP-HPLC analysis as indicated above.

Row | Structure (SMILES) | IC50 (5-LO [1]) [µM] | melting point [°C] | Inhibition of the biosynthesis of 5-LO products in stimulated HEK293 cells (5-LO [2]) | IC50 [3] [µM] | Inhibition of the biosynthesis of 5-LO products in human PMNL cells (5-LO [4])
1 | O=C(/C=C/c1ccc(O)c(O)c1)OCCc1ccccc1 [CAPE, caffeic acid phenethyl ester] | 0.52 | – | – | – | –
2 | COc1ccc(/C=C/C(=O)N(O)C(N)=O)cc1O [Compound 34, 1-Hydroxy-1-((E)-3-(3-hydroxy-4-methoxyphenyl)acryloyl)urea] | – | 170 to 172 | inactive | – | –
3 | NC(=O)N(O)C(=O)/C=C/c1ccccc1 [Compound 33, 1-Hydroxy-1-((E)-3-phenylacryloyl)urea] | – | 130 to 132 | inactive | – | –
4 | O=C(/C=C/c1ccccc1)c1cc2ccccc2s1 [Compound 11, (E)-1-(1-Benzothiophen-2-yl)-3-phenyl-2-propen-1-one] | – | 118 to 120 | less active than SAPE (2); also recorded: non-significantly different than Zileuton (1) | – | –
5 | O=C(/C=C/c1ccccc1O)c1cc2ccccc2s1 [Compound 14, (E)-1-(1-Benzothiophen-2-yl)-3-(o-hydroxyphenyl)-2-propen-1-one] | – | 178 to 180 | non-significantly different than Zileuton (1) | 31.8 | neither compound showed significant inhibition compared to controls
